Source: the NIST ThermoML archive (doi:10.1016/j.jct.2014.07.012)
± gives the expanded uncertainty stated by the source.

Assay: mn = molality of the nth substance listed, in mol/kg
Details: 100 kPa, Liquid; for speed of sound: Frequency=3 MHz, Sing-around technique in a fixed-path interferometer; for mass density: Vibrating tube method

CCN(CC)C(N)=O [1,1-diethylurea] + O
Details	mass density, 288.15 K [kg/m3]	mass density, 293.15 K [kg/m3]	mass density, 298.15 K [kg/m3]	mass density, 303.15 K [kg/m3]	mass density, 308.15 K [kg/m3]	speed of sound, 288.15 K [m/s]	speed of sound, 293.15 K [m/s]	speed of sound, 298.15 K [m/s]	speed of sound, 303.15 K [m/s]	speed of sound, 308.15 K [m/s]
m1 = 0.0535	999.376 ± 0.041	998.462 ± 0.041	997.288 ± 0.042	995.875 ± 0.042	994.243 ± 0.043	–	–	–	–	–
m1 = 0.0856	999.546 ± 0.041	998.62 ± 0.042	997.435 ± 0.042	996.012 ± 0.043	994.369 ± 0.044	1474.9 ± 1.2	1490.4 ± 1.2	1503.9 ± 1.2	1515.7 ± 1.2	1525.8 ± 1.2
m1 = 0.1181	999.725 ± 0.042	998.786 ± 0.043	997.589 ± 0.043	996.154 ± 0.044	994.501 ± 0.045	1478 ± 1.2	1493.2 ± 1.2	1506.6 ± 1.2	1518.1 ± 1.2	1528 ± 1.2
m1 = 0.1603	999.959 ± 0.043	999.002 ± 0.044	997.788 ± 0.044	996.338 ± 0.045	994.672 ± 0.046	1482 ± 1.2	1496.8 ± 1.2	1509.9 ± 1.2	1521.2 ± 1.2	1530.8 ± 1.2
m1 = 0.2142	1000.27 ± 0.045	999.288 ± 0.045	998.052 ± 0.046	996.585 ± 0.047	994.898 ± 0.047	1487 ± 1.2	1501.4 ± 1.2	1514.1 ± 1.2	1525 ± 1.2	1534.3 ± 1.2
m1 = 0.2689	1000.59 ± 0.047	999.586 ± 0.047	998.328 ± 0.048	996.837 ± 0.048	995.135 ± 0.049	1491.9 ± 1.2	1506 ± 1.2	1518.2 ± 1.2	1528.8 ± 1.2	1537.8 ± 1.2
m1 = 0.3254	1000.93 ± 0.049	999.905 ± 0.049	998.628 ± 0.05	997.108 ± 0.05	995.381 ± 0.051	1496.9 ± 1.2	1510.3 ± 1.2	1522.2 ± 1.2	1532.6 ± 1.3	1541.3 ± 1.3

CN(C)C(N)=O [N,N-dimethylurea] + O
Details	mass density, 288.15 K [kg/m3]	mass density, 293.15 K [kg/m3]	mass density, 298.15 K [kg/m3]	mass density, 303.15 K [kg/m3]	mass density, 308.15 K [kg/m3]	speed of sound, 288.15 K [m/s]	speed of sound, 293.15 K [m/s]	speed of sound, 298.15 K [m/s]	speed of sound, 303.15 K [m/s]	speed of sound, 308.15 K [m/s]
m1 = 0.0526	999.644 ± 0.039	998.733 ± 0.04	997.562 ± 0.04	996.154 ± 0.041	994.527 ± 0.042	1469.9 ± 1.2	1485.7 ± 1.2	1499.7 ± 1.2	1511.8 ± 1.2	1522.3 ± 1.2
m1 = 0.0842	999.97 ± 0.039	999.051 ± 0.04	997.869 ± 0.04	996.454 ± 0.041	994.818 ± 0.042	1471.8 ± 1.2	1487.5 ± 1.2	1501.3 ± 1.2	1513.4 ± 1.2	1523.7 ± 1.2
m1 = 0.1149	1000.29 ± 0.04	999.36 ± 0.04	998.171 ± 0.04	996.746 ± 0.041	995.103 ± 0.042	1473.7 ± 1.2	1489.2 ± 1.2	1502.9 ± 1.2	1514.8 ± 1.2	1525 ± 1.2
m1 = 0.1572	1000.73 ± 0.04	999.785 ± 0.04	998.583 ± 0.041	997.148 ± 0.041	995.495 ± 0.042	1476.3 ± 1.2	1491.6 ± 1.2	1505.1 ± 1.2	1516.8 ± 1.2	1526.8 ± 1.2
m1 = 0.2104	1001.28 ± 0.041	1000.32 ± 0.04	999.103 ± 0.041	997.653 ± 0.041	995.988 ± 0.042	1479.6 ± 1.2	1494.6 ± 1.2	1507.8 ± 1.2	1519.3 ± 1.2	1529.1 ± 1.2
m1 = 0.2629	1001.83 ± 0.041	1000.85 ± 0.041	999.617 ± 0.041	998.153 ± 0.041	996.474 ± 0.042	1482.6 ± 1.2	1497.4 ± 1.2	1510.4 ± 1.2	1521.7 ± 1.2	1531.3 ± 1.2
m1 = 0.318	1002.4 ± 0.042	1001.4 ± 0.041	1000.15 ± 0.041	998.673 ± 0.042	996.98 ± 0.042	1485.9 ± 1.2	1500.4 ± 1.2	1513.2 ± 1.2	1524.2 ± 1.2	1533.6 ± 1.2

CCCCNC(N)=O [N-butylurea] + O
Details	mass density, 288.15 K [kg/m3]	mass density, 293.15 K [kg/m3]	mass density, 298.15 K [kg/m3]	mass density, 303.15 K [kg/m3]	mass density, 308.15 K [kg/m3]	speed of sound, 288.15 K [m/s]	speed of sound, 293.15 K [m/s]	speed of sound, 298.15 K [m/s]	speed of sound, 303.15 K [m/s]	speed of sound, 308.15 K [m/s]
m1 = 0.0486	999.444 ± 0.04	998.527 ± 0.04	997.349 ± 0.04	995.933 ± 0.041	994.297 ± 0.042	1471.6 ± 1.2	1487.2 ± 1.2	1501.1 ± 1.2	1513.1 ± 1.2	1523.5 ± 1.2
m1 = 0.0781	999.638 ± 0.04	998.707 ± 0.04	997.514 ± 0.041	996.086 ± 0.041	994.438 ± 0.042	1474.5 ± 1.2	1490 ± 1.2	1503.6 ± 1.2	1515.4 ± 1.2	1525.6 ± 1.2
m1 = 0.1078	999.835 ± 0.04	998.889 ± 0.04	997.683 ± 0.041	996.243 ± 0.041	994.583 ± 0.042	1477.5 ± 1.2	1492.7 ± 1.2	1506.1 ± 1.2	1517.7 ± 1.2	1527.6 ± 1.2
m1 = 0.1473	1000.1 ± 0.04	999.134 ± 0.04	997.909 ± 0.041	996.448 ± 0.042	994.774 ± 0.042	1481.3 ± 1.2	1496.2 ± 1.2	1509.3 ± 1.2	1520.6 ± 1.2	1530.3 ± 1.2
m1 = 0.1974	1000.44 ± 0.041	999.45 ± 0.041	998.201 ± 0.041	996.718 ± 0.042	995.022 ± 0.043	1486.1 ± 1.2	1500.6 ± 1.2	1513.3 ± 1.2	1524.3 ± 1.2	1533.7 ± 1.2
m1 = 0.2475	1000.78 ± 0.041	999.763 ± 0.041	998.489 ± 0.042	996.985 ± 0.042	995.266 ± 0.043	1490.8 ± 1.2	1504.9 ± 1.2	1517.3 ± 1.2	1527.9 ± 1.2	1536.9 ± 1.2
m1 = 0.2986	1001.14 ± 0.042	1000.09 ± 0.04	998.789 ± 0.042	997.259 ± 0.043	995.516 ± 0.043	1495.5 ± 1.2	1509.2 ± 1.2	1521.2 ± 1.2	1531.5 ± 1.2	1540.2 ± 1.2

CCCNC(N)=O [N-propylurea] + O
Details	mass density, 288.15 K [kg/m3]	mass density, 293.15 K [kg/m3]	mass density, 298.15 K [kg/m3]	mass density, 303.15 K [kg/m3]	mass density, 308.15 K [kg/m3]	speed of sound, 288.15 K [m/s]	speed of sound, 293.15 K [m/s]	speed of sound, 298.15 K [m/s]	speed of sound, 303.15 K [m/s]	speed of sound, 308.15 K [m/s]
m1 = 0.0494	999.566 ± 0.04	998.653 ± 0.04	997.48 ± 0.041	996.069 ± 0.041	994.44 ± 0.042	–	–	–	–	–
m1 = 0.079	999.848 ± 0.04	998.924 ± 0.041	997.74 ± 0.041	996.318 ± 0.042	994.678 ± 0.042	–	–	–	–	–
m1 = 0.0791	–	–	–	–	–	1473.3 ± 1.2	1488.9 ± 1.2	1502.6 ± 1.2	1514.5 ± 1.2	1524.8 ± 1.2
m1 = 0.1089	1000.13 ± 0.041	999.198 ± 0.041	998.003 ± 0.042	996.573 ± 0.042	994.925 ± 0.043	1475.8 ± 1.2	1491.1 ± 1.2	1504.7 ± 1.2	1516.4 ± 1.2	1526.5 ± 1.2
m1 = 0.1484	1000.52 ± 0.041	999.564 ± 0.041	998.356 ± 0.042	996.91 ± 0.043	995.249 ± 0.043	1479 ± 1.2	1494.1 ± 1.2	1507.4 ± 1.2	1518.9 ± 1.2	1528.8 ± 1.2
m1 = 0.1983	1000.99 ± 0.042	1000.02 ± 0.042	998.792 ± 0.043	997.329 ± 0.043	995.652 ± 0.044	1483 ± 1.2	1497.8 ± 1.2	1510.8 ± 1.2	1522 ± 1.2	1531.7 ± 1.2
m1 = 0.249	1001.49 ± 0.043	1000.49 ± 0.043	999.244 ± 0.043	997.763 ± 0.044	996.069 ± 0.045	1487.1 ± 1.2	1501.6 ± 1.2	1514.2 ± 1.2	1525.2 ± 1.2	1534.6 ± 1.2
m1 = 0.3012	1001.99 ± 0.045	1000.97 ± 0.044	999.704 ± 0.044	998.202 ± 0.045	996.489 ± 0.045	1491.1 ± 1.2	1505.3 ± 1.2	1517.7 ± 1.2	1528.4 ± 1.2	1537.5 ± 1.2

NC(N)=O [urea] + O
Details	mass density, 288.15 K [kg/m3]	mass density, 293.15 K [kg/m3]	mass density, 298.15 K [kg/m3]	mass density, 303.15 K [kg/m3]	mass density, 308.15 K [kg/m3]	speed of sound, 288.15 K [m/s]	speed of sound, 293.15 K [m/s]	speed of sound, 298.15 K [m/s]	speed of sound, 303.15 K [m/s]	speed of sound, 308.15 K [m/s]
m1 = 0.0504	999.922 ± 0.039	999.019 ± 0.04	997.847 ± 0.04	996.442 ± 0.041	994.816 ± 0.041	1468.2 ± 1.2	1483.9 ± 1.2	1498 ± 1.2	1510.3 ± 1.2	1520.9 ± 1.2
m1 = 0.0807	1000.43 ± 0.039	999.511 ± 0.039	998.329 ± 0.04	996.911 ± 0.041	995.281 ± 0.041	1469.1 ± 1.2	1484.8 ± 1.2	1498.8 ± 1.2	1511 ± 1.2	1521.6 ± 1.2
m1 = 0.1107	1000.92 ± 0.04	999.994 ± 0.039	998.802 ± 0.04	997.378 ± 0.04	995.738 ± 0.041	1470 ± 1.2	1485.6 ± 1.2	1499.6 ± 1.2	1511.8 ± 1.2	1522.2 ± 1.2
m1 = 0.151	1001.58 ± 0.04	1000.64 ± 0.04	999.436 ± 0.04	997.998 ± 0.04	996.351 ± 0.041	1471.3 ± 1.2	1486.8 ± 1.2	1500.6 ± 1.2	1512.7 ± 1.2	1523.1 ± 1.2
m1 = 0.2005	1002.39 ± 0.04	1001.43 ± 0.04	1000.21 ± 0.04	998.757 ± 0.04	997.097 ± 0.041	1472.8 ± 1.2	1488.1 ± 1.2	1501.9 ± 1.2	1513.9 ± 1.2	1524.2 ± 1.2
m1 = 0.2512	1003.21 ± 0.041	1002.23 ± 0.04	1000.99 ± 0.04	999.529 ± 0.04	997.855 ± 0.041	1474.1 ± 1.2	1489.5 ± 1.2	1503.1 ± 1.2	1515 ± 1.2	1525.3 ± 1.2

O [water] + CCCCNC(N)=O
Details	mass density [kg/m3]
308.15 K, m2 = 0	994.065 ± 0.042
